Structures can show the parent of a compound that is named as a salt.
Columns and labels:
HDAC (HeLa cell extract) = assay: Primary assay: deacetylase activity (HDAC inhibition), HeLa cell extract; parameters: species or system human; settings: HeLa cell extract as HDAC source; read-out: Biochemical Assay Data HDAC Inhibition (IC50) HeLa
Text: Briefly, this assay relies on the release of radioactive acetate from a radioactively labelled histone fragment by the action of HDAC enzyme. Test compounds, which inhibit HDAC, reduce the yield of radioactive acetate. Signal (e.g., scintillation counts) measured in the presence and absence of a test compound provide an indication of that compound's ability to inhibit HDAC activity. Decreased activity indicates increased inhibition by the test compound.
The histone fragment was an N-terminal sequence from histone H4, and it was labelled with radioactively labelled acetyl groups using tritiated acetylcoenzyme A (coA) in conjunction with an enzyme which is the histone acetyltransferase domain of the transcriptional coactivator p300. […] The acetylated peptide was then separated from free acetyl coA by size exclusion chromatography on Sephadex G-15 (Sigma G-15-120), using distilled H2O as the mobile phase.
After purification of the radiolabelled histone fragment, it was incubated with a source of HDAC (e.g., an extract of HeLa cells (a rich source of HDAC), recombinantly produced HDAC1 or HDAC2) and any released acetate was extracted into an organic phase and quantitatively determined using scintillation counting. By including a test compound with the source of HDAC, that compound's ability to inhibit the HDAC was determined.
Alternatively, the activity of the compounds as HDAC inhibitors was determined using a commercially available fluorescent assay kit: (Fluor de Lys™, BioMol Research Labs, Inc., Plymouth Meeting, USA).
Extensive comparative studies have shown that Primary Assay (1) and Primary Assay (2), discussed above, yield equivalent results. Primary Assay results reported herein are (a) exclusively from (1); (b) exclusively from (2); or (c) from both (1) and (2).
The HeLa cell extract was made from HeLa cells (ATCC Ref. No. CCL-2) by freeze-thawing three times in 60 mM TrisCl pH 8.0, 450 mM NaCl, 30% glycerol. Two cell volumes of extraction buffer were used, and particulate material was centrifuged out (20800 g, 4° C., 10 min). The supernatant extract having deacetylase activity was aliquoted and frozen for storage.
Percent activity (% activity) for each test compound was calculated as: % activity={(S^c−B)/(S°−B)}×100 wherein S^c denotes signal measured in the presence of enzyme and the compound being tested, S° denotes signal measured in the presence of enzyme but in the absence of the compound being tested, and B denotes the background signal measured in the absence of both enzyme and compound being tested.

HeLa cells = assay: Secondary assay: cell proliferation inhibition WST-1, HeLa; type: cell-based; settings: Homo sapiens, 48 h
Method: (§1) Compounds with HDAC inhibition activity, as determined using the primary assay, were subsequently evaluated using secondary cell-based assays. The following cell lines were used:
HeLa—Human cervical adenocarcinoma cell line (ATCC ref. No. CCL-2).
(§2) Cells were cultured, exposed to candidate compounds, and incubated for a time, and the number of viable cells was then assessed using the Cell Proliferation Reagent WST-1 from Boehringer Mannheim (Cat. No. 1 644 807), described below.
(§3) Cells were plated in 96-well plates at 3-10×10^3 cells/well in 100 μL of culture medium. The following day, different concentrations of candidate compounds were added and the cells incubated at 37° C. for 48 h. Subsequently, 10 μL/well of WST-1 reagent was added and the cells reincubated for 1 hour. After the incubation time, absorbance was measured.
(§4) WST-1 is a tetrazolium salt which is cleaved to formazan dye by cellular enzymes. An expansion in the number of viable cells results in an increase in the overall activity of mitochondrial dehydrogenases in the sample. This augmentation in the enzyme activity leads to an increase in the amount of formazan dye formed, which directly correlates to the number of metabolically active cells in the culture. The formazan dye produced is quantified by a scanning multiwell spectrophotometer by measuring the absorbance of the dye solution at 450 nm wavelength (reference wavelength 690 nm).
(§5) Percent activity (% activity) in reducing the number of viable cells was calculated for each test compound as: % activity={(S^c−B)/(S°−B)}×100 wherein S^c denotes signal measured in the presence of the compound being tested, S° denotes signal measured in the absence of the compound being tested, and B denotes the background signal measured in blank wells containing medium only. […] IC50 values were calculated using the software package Prism 3.0 (GraphPad Software Inc., San Diego, Calif.), setting top value at 100 and bottom value at 0.

[1] = tested on: K11 HPV E7 transformed human keratinocyte line; assay: Secondary assay: cell proliferation inhibition WST-1, K11; type: cell-based; settings: K11 cells, 48 h
Method: as §1
K11—HPV E7 transformed human keratinocyte line provided by Pidder Jansen-Duerr, Institut für Biomedizinische Alternsforschung, Innsbruck, Austria.
as §3, §4, §5

JURKAT human T-cell line = assay: Secondary assay: cell proliferation inhibition WST-1, Jurkat; type: cell-based; settings: Jurkat cells, 48 h
Method: as §1
JURKAT—Human T-cell line (ATCC no. TIB-152).
as §2, §3, §4, §5

Row | Compound | IC50 (HDAC (HeLa cell extract)) [nM] | IC50 (HeLa cells) [nM] | melting point | other results
1 | O=C(/C=C/c1ccc2ccccc2n1)NO [PX117449, (E)-N-Hydroxy-3-(2-quinolinyl)-2-propenamide] | 35 | 1800 | 159.5 to 160.5 °C | IC50 ([1]; Homo sapiens, Keratinocyte): 12.4 µM; IC50 (JURKAT human T-cell line; Homo sapiens): 1000 nM
2 | O=C(/C=C/c1cnc2ccccc2n1)NO [PX118840, (E)-3-(2-Quinoxalinyl)-N-hydroxy-2-propenamide sodium salt] | 42 | 2100 | – | –
3 | O=C(/C=C/c1cccc2ncccc12)NO [PX119088, (E)-N-Hydroxy-3-(5-quinolinyl)-2-propenamide] | – | 17800 | 211 to 213 °C | –
4 | oxamflatin | – | – | – | IC50 (JURKAT human T-cell line): 170 nM
5 | O=C(/C=C/C=C/c1ccc2ccccc2n1)NO [PX119135, (2E,4E)-N-Hydroxy-5-(2-quinolinyl)-2,4-pentadienamide] | 330 | – | 160 to 162 °C | –
6 | O=C(/C=C/c1nc2ccccc2s1)NO [PX118915, (E)-3-(1,3-Benzothiazol-2-yl)-N-hydroxy-2-propenamide] | 30 | 7200 | 163 to 165 °C | –
7 | O=C(/C=C/c1ccc2ncccc2c1)NO [PX119039, (E)-N-Hydroxy-3-(6-quinolinyl)-2-propenamide] | 265 | 14100 | – | –
8 | COc1ccc2nc(/C=C/C(=O)NO)ccc2c1 [PX118887, (E)-N-Hydroxy-3-(6-methoxy-2-quinolinyl)-2-propenamide] | 28 | 1800 | 172 to 175 °C | –
9 | O=C(CCc1nc2ccccc2[nH]c1=O)NO [PX119094, N-Hydroxy-3-(3-oxo-3,4-dihydro-2-quinoxalinyl)propanamide] | – | – | 213 to 214 °C | –
10 | O=C(CCc1ccc2cccc(O)c2n1)NO [PX119095, N-Hydroxy-3-(8-hydroxy-2-quinolinyl)propanamide] | – | 22300 | 165 to 167 °C | –
11 | O=C(NO)c1ccc(OCc2ccc3ccccc3n2)cc1 [PX119141, N-Hydroxy-4-(2-quinolinylmethoxy)benzamide] | 186 | – | 202 to 204 °C | –
12 | O=C(/C=C/c1ccc2cccc(OCc3ccccc3)c2n1)NO [PX118867, (E)-3-[8-(Benzyloxy)-2-quinolinyl]-N-hydroxy-2-propenamide] | 262 | 3900 | 180 to 182 °C | –
13 | Cc1ccc2nc(CCC(=O)NO)cc(C)c2c1 [PX119138, 3-(4,6-Dimethyl-2-quinolinyl)-N-hydroxypropanamide] | 619 | – | 192 to 194 °C | –
14 | CC(/C=C/C(=O)NO)=C\[C@@H](C)C(=O)c1ccc(N(C)C)cc1 [TSA, trichostatin A] | – | 350 | – | IC50 ([1]; Homo sapiens, Keratinocyte): 0.38 µM; IC50 (JURKAT human T-cell line; Homo sapiens): 42 nM
15 | Cc1ccc2nc(/C=C/C(=O)NO)ccc2c1 [PX118839, (E)-3-(6-Methyl-2-quinolinyl)-N-hydroxy-2-propenamide] | 40 | 2400 | 200 to 202 °C (dec.) | –
16 | O=C(/C=C/c1ccc2cc(F)ccc2n1)NO [PX118886, (E)-3-(6-Fluoro-2-quinolinyl)-N-hydroxy-2-propenamide] | 44 | 2600 | – | –
17 | Nc1ccccc1NC(=O)c1ccc(CNC(=O)OCc2cccnc2)cc1 [MS-275] | – | – | – | IC50 [1]: 9.16 µM; IC50 (JURKAT human T-cell line): 365 nM
18 | Cc1nc2ccccc2nc1/C=C/C(=O)NO [PX118866, (E)-N-Hydroxy-3-(3-methyl-2-quinoxalinyl)-2-propenamide] | – | 33100 | 170 to 172 °C | –
19 | O=C(/C=C/c1cnc2ccccc2c1)NO [PX118987, (E)-N-Hydroxy-3-(3-quinolinyl)-2-propenamide] | 197 | 3700 | 205 to 207 °C | –
20 | O=C(/C=C/c1cccc2cccnc12)NO [PX119071, (E)-3-(8-Quinolinyl)-N-hydroxy-2-propenamide] | – | – | 159 to 160 °C | –
21 | COc1ccc2nc(C)ccc2c1/C=C/C(=O)NO [PX119038, (E)-N-Hydroxy-3-(6-methoxy-2-methyl-5-quinolinyl)-2-propenamide] | – | – | 225 to 227 °C | –
22 | O=C(/C=C/c1ccnc2ccccc12)NO [PX118885, (E)-3-(4-Quinolinyl)-N-hydroxy-2-propenamide] | 68 | 2700 | 204 to 206 °C | –
23 | COc1ccc2nc(/C=C/C(=O)NO)ccc2c1Br [PX118865, (E)-3-(5-Bromo-6-methoxy-2-quinolinyl)-N-hydroxy-2-propenamide] | 218 | 1400 | 204 to 206 °C | –
24 | O=C(/C=C/c1nc2ccccc2o1)NO [PX118835, (E)-3-(1,3-Benzoxazol-2-yl)-N-hydroxy-2-propenamide] | 32 | 1700 | – | –
25 | O=C(CCc1ccc2ccccc2n1)NO [PX118828, N-Hydroxy-3-(2-quinolinyl)propanamide] | 250 | 27200 | 159 to 160 °C | –
26 | O=C(/C=C/c1cnc2ccccc2n1)NO (as salt: sodium) [PX118840, (E)-3-(2-Quinoxalinyl)-N-hydroxy-2-propenamide sodium salt] | – | – | 200 to 202 °C (dec.) | –
27 | Cc1ccc2nc(/C=C/C(=O)NO)cc(C)c2c1 [PX118864, (E)-3-(4,6-Dimethyl-2-quinolinyl)-N-hydroxy-2-propenamide] | 609 | 1300 | 199 to 201 °C | –
28 | Cc1ccc2ccc(/C=C/C(=O)NO)nc2c1 [PX118869, (E)-N-Hydroxy-3-(7-methyl-2-quinolinyl)-2-propenamide] | 38 | 1500 | 191 to 193 °C | –
29 | O=C(/C=C/c1ccc2cccnc2c1)NO [PX119068, (E)-N-Hydroxy-3-(7-quinolinyl)-2-propenamide] | 111 | 6700 | 203 to 205 °C | –

Reference: patent publication US8071620B2, “Carbamic acid compounds comprising a bicyclic heteroaryl group as HDAC inhibitors” (Topotarget UK Limited, priority 2003, dated 2011)
